Drawing on ChEMBL document CHEMBL2069300 (J Med Chem, 2012), this text covers solubility and Stability for 38 molecules.

Values after ≈ are worked out from the molar mass of the structure shown.

Series [1] is described as follows: Aqueous solubility of the compound in phosphate buffered saline at pH 7.4. The series is classed as physicochemical. The conditions noted are these: buffer.
Series [2] can be described thus: Stability of the compound in water at neutral pH after 24 hrs. The class given is physicochemical. The conditions noted are these: buffer.

`COc1ccc(OC)c(S(=O)(=O)ON2C(=O)c3ccccc3C2=O)c1` showed a solubility in series [1] of 453.9 µM (≈ 165 µg/mL).

On to `Nc1nc2ccc(S(=O)(=O)N3CCCCC3)cc2s1`, for which the solubility in series [1] is 338.8 µM (≈ 101 µg/mL).

In series [1], `CCc1ccc(S(=O)(=O)ON2C(=O)c3ccccc3C2=O)cc1` displayed a solubility of 462 µM (≈ 153 µg/mL).

For the molecule `COC(=O)c1ccc2c(c1)C(C)(C)C(/C=C/c1ccc(O)cc1)=[N+]2C`, the solubility in series [1] was found to be 218.7 µM.

`Cc1cccc(N2COc3ccc4ccccc4c3C2)c1` yielded a solubility in series [1] of 377.4 µM (≈ 104 µg/mL). This solubility lies about 1.7-fold higher than the previous one.

In series [1], `CCOc1ccc(/C=C/C2=[N+](C)c3ccc(C(=O)OC)cc3C2(C)C)cc1` yielded a solubility of 0.7 µM.

In turn, `COC(=O)c1ccc(/C=C/C2=[N+](C)c3ccc(OC)cc3C2(C)C)cc1` showed a solubility in series [1] of 0.2 µM.

In series [1], `CCCS(=O)(=O)c1oc(-c2cccs2)nc1S(=O)(=O)c1ccc(F)cc1` showed a solubility of 21.9 µM (≈ 9.1 µg/mL).

As for `CCS(=O)(=O)c1oc(-c2cccs2)nc1S(=O)(=O)c1ccccc1`, in series [1], the solubility is 49.9 µM (≈ 19.1 µg/mL).

Take `CC(C)CS(=O)(=O)c1oc(-c2cccs2)nc1S(=O)(=O)c1ccc(F)cc1`: the solubility in series [1] turned out to be 17.6 µM (≈ 7.56 µg/mL).

`CC(C)S(=O)(=O)c1oc(-c2cccs2)nc1S(=O)(=O)c1ccccc1` displayed a solubility in series [1] of 34.2 µM (≈ 13.6 µg/mL).

In turn, `Cc1c(C=O)c(C(=O)O)c(C)n1Cc1ccc(Cl)cc1` registered a solubility in series [1] of 576 µM (≈ 168 µg/mL).

Turning to `O=Cc1nc2ccccc2n1Cc1ccc2ccccc2c1`, the solubility in series [1] stood at 42.1 µM (≈ 12.1 µg/mL).

As for `O=Cc1nc2ccccc2n1Cc1ccc(Cl)cc1Cl`, the solubility in series [1] turned out to be 15.3 µM (≈ 4.67 µg/mL).

As to `COCC(=O)Oc1c(Sc2ccc(Cl)cc2)c(C)nn1-c1ccccc1`, in series [1], the solubility stood at 493 µM (≈ 192 µg/mL).

On to `CCCCNC(=O)Cn1sc2nc(C)cc(C)c2c1=O`, for which the solubility in series [1] was 487 µM (≈ 143 µg/mL).

`COc1ccc(/C=C/C2=[N+](C)c3ccc(OC)cc3C2(C)C)cc1` showed a solubility in series [1] of 273.3 µM.

`COC(=O)c1ccc2c(c1)C(C)(C)C(/C=C/c1ccc(OC)cc1)=[N+]2C` yielded a solubility in series [1] of 0.1 µM. Compared with the last molecule, the solubility is about 2700-fold lower.

Regarding `Cc1[nH]c2ccccc2c1C(Nc1ccccc1)c1ccccc1` (centres undefined), the Stability entry in series [2] was “Stable”.

For `Cc1[nH]c2ccccc2c1C(Nc1ccccc1)c1ccc(Cl)cc1` (centres undefined), the Stability result in series [2] is on record as “Stable”.

Consider `COc1ccc(C(Nc2ccccc2)c2c(C)[nH]c3ccccc23)cc1` (centres undefined), for which, in series [2], the Stability entry is “Stable”.

As for `Cc1ccc(C(Nc2ccccc2)c2c(C)[nH]c3ccccc23)cc1` (centres undefined), the Stability result in series [2] is given as “Stable”.

Regarding `Cc1[nH]c2ccccc2c1C(Nc1ccccc1)c1ccc(N(C)C)cc1` (centres undefined), the Stability entry in series [2] is reported as “Stable”.

As to `Cc1[nH]c2ccccc2c1C(Nc1ccccc1)c1ccc([N+](=O)[O-])cc1` (centres undefined), in series [2], the Stability result is recorded as “Stable”.

Regarding `Cc1[nH]c2ccccc2c1C(C)Nc1ccccc1` (centres undefined), the Stability entry in series [2] is “Stable”.

As to `Cc1[nH]c2ccccc2c1C(Nc1ccccc1)c1ccc2ccccc2c1` (centres undefined), in series [2], the Stability result is on record as “Stable”.

The molecule `Cc1[nH]c2ccccc2c1C(Nc1ccccc1)c1ccc(CCCO)cc1` (centres undefined) yielded a solubility in series [1] of 503.4 µM (≈ 187 µg/mL). Also, in series [2], the Stability result was “Stable”.

In the case of `Cc1[nH]c2ccccc2c1C(Nc1ccccc1)c1ccccc1Cl` (centres undefined), in series [2], the Stability result was “Stable”.

Turning to `Cc1[nH]c2ccccc2c1C(Nc1ccc(Cl)cc1)c1ccccc1Cl` (centres undefined), the Stability result in series [2] is given as “Stable”.

As to `COc1ccc(NC(c2ccccc2Cl)c2c(C)[nH]c3ccccc23)cc1` (centres undefined), in series [2], the Stability result is recorded as “Stable”.

Consider `Cc1ccc(NC(c2ccccc2Cl)c2c(C)[nH]c3ccccc23)cc1` (centres undefined), for which the Stability entry in series [2] is listed as “Stable”.

`Cc1[nH]c2ccccc2c1C(Nc1ccc(N(C)C)cc1)c1ccccc1Cl` (centres undefined): the Stability entry in series [2] is listed as “Stable”.

Turning to `Cc1[nH]c2ccccc2c1C(Nc1ccc([N+](=O)[O-])cc1)c1ccccc1Cl` (centres undefined), in series [2], the Stability entry is given as “Stable”.

As for `Cc1[nH]c2ccccc2c1C(Nc1ccc(C(F)(F)F)cc1)c1ccccc1Cl` (centres undefined), the Stability entry in series [2] is reported as “Stable”.

Turning to `COc1ccccc1NC(c1ccccc1Cl)c1c(C)[nH]c2ccccc12` (centres undefined), the Stability result in series [2] is on record as “Stable”.

As to `Cn1cc(C(Nc2ccccc2)c2ccccc2Cl)c2ccccc21` (centres undefined), in series [2], the Stability result is “Stable”.

For the molecule `Clc1ccccc1C(Nc1ccccc1)c1c[nH]c2ccccc12` (centres undefined), in series [2], the Stability entry was “Stable”.

Regarding `Cc1[nH]c2ccccc2c1C(Sc1ccccc1)c1ccccc1Cl` (centres undefined), in series [2], the Stability result is on record as “Stable”.

The solubility is the dissolved amount per volume that the medium holds.
